Assay results from PubChem BioAssay (NCI).
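The compound was tested at five concentrations on cells cultured in 96-well plates, with a 48-hour exposure period. GI50 marks 50% less growth. TGI marks complete inhibition of growth.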

How the values were obtained:
Test in all cases: inhibition of tumour cell growth, NCI panel, 48 h
SK-MEL-5 melanoma = tested on: SK-MEL-5 melanoma
OVCAR-8 ovarian = tested on: OVCAR-8 ovarian
OVCAR-5 ovarian = tested on: OVCAR-5 ovarian
K-562 leukemia = tested on: K-562 leukemia
T-47D breast = tested on: T-47D breast
NCI-H226 lung = tested on: NCI-H226 lung
HL-60(TB) leukemia = tested on: HL-60(TB) leukemia
SF-295 CNS = tested on: SF-295 CNS
UACC-257 melanoma = tested on: UACC-257 melanoma
BT-549 breast = tested on: BT-549 breast
HOP-62 NSCLC = tested on: HOP-62 NSCLC
LOX IMVI melanoma = tested on: LOX IMVI melanoma
MOLT-4 leukemia = tested on: MOLT-4 leukemia
OVCAR-3 ovarian = tested on: OVCAR-3 ovarian
786-0 renal = tested on: 786-0 renal
HCT-15 colon = tested on: HCT-15 colon
HS 578T breast = tested on: HS 578T breast
M14 melanoma = tested on: M14 melanoma
NCI/ADR-RES ovarian = tested on: NCI/ADR-RES ovarian
UO-31 renal = tested on: UO-31 renal
MDA-MB-231 breast = tested on: MDA-MB-231 breast
HCC-2998 colon = tested on: HCC-2998 colon
SNB-19 CNS = tested on: SNB-19 CNS
HT29 colon = tested on: HT29 colon
SR leukemia = tested on: SR leukemia
KM12 colon = tested on: KM12 colon
NCI-H460 lung = tested on: NCI-H460 lung
A549 NSCLC = tested on: A549 NSCLC
U251 CNS = tested on: U251 CNS
OVCAR-4 ovarian = tested on: OVCAR-4 ovarian
RPMI-8226 leukemia = tested on: RPMI-8226 leukemia
A498 renal = tested on: A498 renal
SNB-75 CNS = tested on: SNB-75 CNS
DU-145 prostate = tested on: DU-145 prostate
CAKI-1 renal = tested on: CAKI-1 renal
EKVX NSCLC = tested on: EKVX NSCLC
CCRF-CEM leukemia = tested on: CCRF-CEM leukemia
MDA-MB-435 = tested on: MDA-MB-435
SW-620 colon = tested on: SW-620 colon
SN12C renal = tested on: SN12C renal
SK-OV-3 ovarian = tested on: SK-OV-3 ovarian
NCI-H522 lung = tested on: NCI-H522 lung
HOP-92 NSCLC = tested on: HOP-92 NSCLC
SK-MEL-28 melanoma = tested on: SK-MEL-28 melanoma
MALME-3M melanoma = tested on: MALME-3M melanoma
IGROV1 ovarian = tested on: IGROV1 ovarian
MCF7 breast = tested on: MCF7 breast
COLO 205 colon = tested on: COLO 205 colon
UACC-62 melanoma = tested on: UACC-62 melanoma
HCT-116 colon = tested on: HCT-116 colon
ACHN renal = tested on: ACHN renal
SK-MEL-2 melanoma = tested on: SK-MEL-2 melanoma
SF-539 CNS = tested on: SF-539 CNS
NCI-H23 lung = tested on: NCI-H23 lung
SF-268 CNS = tested on: SF-268 CNS
TK-10 renal = tested on: TK-10 renal

SMILES: CCNC(=O)N1CCc2c(Cl)c3c(c(OC)c2[C@@H]1[C@H]1OCc2c1ccc(OC)c2OC)OCCO3
- GI50 (SK-MEL-5 melanoma): 4.59 µM
- TGI (SK-MEL-5 melanoma): 21.1 µM
- GI50 (OVCAR-8 ovarian): 4.17 µM
- TGI (OVCAR-8 ovarian): > 100 µM
- GI50 (OVCAR-5 ovarian): 3.93 µM
- TGI (OVCAR-5 ovarian): > 100 µM
- GI50 (K-562 leukemia): 3.48 µM
- TGI (K-562 leukemia): > 100 µM
- GI50 (T-47D breast): 4.26 µM
- TGI (T-47D breast): > 100 µM
- GI50 (NCI-H226 lung): 4.44 µM
- TGI (NCI-H226 lung): > 100 µM
- GI50 (HL-60(TB) leukemia): 2.49 µM
- TGI (HL-60(TB) leukemia): 6.43 µM
- GI50 (SF-295 CNS): 1.86 µM
- TGI (SF-295 CNS): 6.51 µM
- GI50 (UACC-257 melanoma): 9.63 µM
- TGI (UACC-257 melanoma): > 100 µM
- GI50 (BT-549 breast): 6.84 µM
- TGI (BT-549 breast): > 100 µM
- GI50 (HOP-62 NSCLC): 3.69 µM
- TGI (HOP-62 NSCLC): > 100 µM
- GI50 (LOX IMVI melanoma): 4.64 µM
- TGI (LOX IMVI melanoma): 27.2 µM
- GI50 (MOLT-4 leukemia): 4.95 µM
- TGI (MOLT-4 leukemia): > 100 µM
- GI50 (OVCAR-3 ovarian): 2.31 µM
- TGI (OVCAR-3 ovarian): 5.37 µM
- GI50 (786-0 renal): 4.24 µM
- TGI (786-0 renal): > 100 µM
- GI50 (HCT-15 colon): 2.72 µM
- TGI (HCT-15 colon): > 100 µM
- GI50 (HS 578T breast): 2.57 µM
- TGI (HS 578T breast): 9.13 µM
- GI50 (M14 melanoma): 2.12 µM
- TGI (M14 melanoma): 5.39 µM
- GI50 (NCI/ADR-RES ovarian): 3.28 µM
- TGI (NCI/ADR-RES ovarian): > 100 µM
- GI50 (UO-31 renal): 5.52 µM
- TGI (UO-31 renal): > 100 µM
- GI50 (MDA-MB-231 breast): 4.95 µM
- TGI (MDA-MB-231 breast): 42.3 µM
- GI50 (HCC-2998 colon): 4.19 µM
- TGI (HCC-2998 colon): > 100 µM
- GI50 (SNB-19 CNS): 4.36 µM
- TGI (SNB-19 CNS): > 100 µM
- GI50 (HT29 colon): 3.38 µM
- TGI (HT29 colon): 25 µM
- GI50 (SR leukemia): 4.22 µM
- TGI (SR leukemia): > 100 µM
- GI50 (KM12 colon): 3.07 µM
- TGI (KM12 colon): 16.5 µM
- GI50 (NCI-H460 lung): 3.47 µM
- TGI (NCI-H460 lung): 13.9 µM
- GI50 (A549 NSCLC): 4.07 µM
- TGI (A549 NSCLC): > 100 µM
- GI50 (U251 CNS): 3.75 µM
- TGI (U251 CNS): 37.5 µM
- GI50 (OVCAR-4 ovarian): 40.6 µM
- TGI (OVCAR-4 ovarian): > 100 µM
- GI50 (RPMI-8226 leukemia): 4.41 µM
- TGI (RPMI-8226 leukemia): > 100 µM
- GI50 (A498 renal): 2.6 µM
- TGI (A498 renal): 7.91 µM
- GI50 (SNB-75 CNS): 2.2 µM
- TGI (SNB-75 CNS): 7.07 µM
- GI50 (DU-145 prostate): 4.2 µM
- TGI (DU-145 prostate): > 100 µM
- GI50 (CAKI-1 renal): 4.2 µM
- TGI (CAKI-1 renal): > 100 µM
- GI50 (EKVX NSCLC): 4.18 µM
- TGI (EKVX NSCLC): > 100 µM
- GI50 (CCRF-CEM leukemia): 3.82 µM
- TGI (CCRF-CEM leukemia): > 100 µM
- GI50 (MDA-MB-435): 1.16 µM
- TGI (MDA-MB-435): 2.83 µM
- GI50 (SW-620 colon): 3.86 µM
- TGI (SW-620 colon): > 100 µM
- GI50 (SN12C renal): 7.1 µM
- TGI (SN12C renal): > 100 µM
- GI50 (SK-OV-3 ovarian): 4.58 µM
- TGI (SK-OV-3 ovarian): > 100 µM
- GI50 (NCI-H522 lung): 1.87 µM
- TGI (NCI-H522 lung): 6.66 µM
- GI50 (HOP-92 NSCLC): 11.7 µM
- TGI (HOP-92 NSCLC): 90 µM
- GI50 (SK-MEL-28 melanoma): 16.5 µM
- TGI (SK-MEL-28 melanoma): > 100 µM
- GI50 (MALME-3M melanoma): 6.27 µM
- TGI (MALME-3M melanoma): > 100 µM
- GI50 (IGROV1 ovarian): 3.6 µM
- TGI (IGROV1 ovarian): > 100 µM
- GI50 (MCF7 breast): 2.72 µM
- TGI (MCF7 breast): > 100 µM
- GI50 (COLO 205 colon): 3.26 µM
- TGI (COLO 205 colon): 10.9 µM
- GI50 (UACC-62 melanoma): 5.2 µM
- TGI (UACC-62 melanoma): > 100 µM
- GI50 (HCT-116 colon): 3.46 µM
- TGI (HCT-116 colon): > 100 µM
- GI50 (ACHN renal): 6.5 µM
- TGI (ACHN renal): > 100 µM
- GI50 (SK-MEL-2 melanoma): 6.01 µM
- TGI (SK-MEL-2 melanoma): > 100 µM
- GI50 (SF-539 CNS): 2.35 µM
- TGI (SF-539 CNS): 6.06 µM
- GI50 (NCI-H23 lung): 4.59 µM
- TGI (NCI-H23 lung): > 100 µM
- GI50 (SF-268 CNS): 6.02 µM
- TGI (SF-268 CNS): > 100 µM
- GI50 (TK-10 renal): 13.5 µM
- TGI (TK-10 renal): > 100 µM
